Series [1] concerns the target T1, Human PDE10A enzyme (Homo sapiens, UniProt Q9Y233).
T1 construct: Human PDE10A enzyme was generated from Sf9 or COS-7 cells transfected with the full-length gene; His-tag; made in house; host or cells: Sf9 or COS-7 cells
As to the kind of experiment: PDE enzyme inhibition, SPA (Scintillation Proximity Assay). The class given is biochemical. The settings on record: for inhibition at 1 µM: compound at 1 μM, read-out: Percent inhibition (1 μM); for IC50: human PDE10A, [3H]cGMP substrate. The procedure: Human PDE10A enzyme was generated from Sf9 or COS-7 cells transfected with the full-length gene. Cloned enzyme was extracted from homogenized cell pellets. The extracted enzyme from Sf9 cells was partially purified using His-tag affinity column. The enzyme was stored at −70° C. until use. PDE activity was measured using a SPA (Scintillation Proximity Assay) (GE Healthcare). To evaluate the inhibitory activity, 10 μL of serial diluted compounds were incubated with 20 μL of PDE enzyme in assay buffer (50 mM HEPES-NaOH, 8.3 mM MgCl2, 1.7 mM EGTA, 0.1% BSA (pH 7.4)) for 30 min. at room temperature. Final concentration of DMSO in the assay was 1 percent as compounds were tested in duplicate in 96-well half-area plates (Corning). To start the reaction, 10 μL of substrate [3H] cGMP (25 or 50 nM; enclosed in SPA kits from GE Healthcare or purchased from PerkinElmer, respectively) was added for a final assay volume of 40 μL. After 60 min incubation at room temperature, yttrium SPA beads containing Zinc sulphate were added (20 μL at 6 mg/mL) to terminate the PDE reaction. After being settled for 60 min., assay plates were counted in a scintillation counter (PerkinElmer) to allow calculation of inhibition rate and IC50. Inhibition rate was calculated on the basis of 0% control wells with DMSO and 100% control wells without enzyme.
(In general: In a scintillation proximity assay essentially only radioactivity close to the scintillant gives light.)

Setting [2] is: Table 1, compound at 0.1 μM as noted in cell, read-out: Percent inhibition (at 0.1 μM).

The values below come from US8513251B2, “Pyridazinone compounds” (Takeda Pharmaceutical Company Limited, priority 2009, dated 2013).

Like-named read-outs stand apart in the source and are kept apart here.

T1 sequence (Q9Y233 267-1055): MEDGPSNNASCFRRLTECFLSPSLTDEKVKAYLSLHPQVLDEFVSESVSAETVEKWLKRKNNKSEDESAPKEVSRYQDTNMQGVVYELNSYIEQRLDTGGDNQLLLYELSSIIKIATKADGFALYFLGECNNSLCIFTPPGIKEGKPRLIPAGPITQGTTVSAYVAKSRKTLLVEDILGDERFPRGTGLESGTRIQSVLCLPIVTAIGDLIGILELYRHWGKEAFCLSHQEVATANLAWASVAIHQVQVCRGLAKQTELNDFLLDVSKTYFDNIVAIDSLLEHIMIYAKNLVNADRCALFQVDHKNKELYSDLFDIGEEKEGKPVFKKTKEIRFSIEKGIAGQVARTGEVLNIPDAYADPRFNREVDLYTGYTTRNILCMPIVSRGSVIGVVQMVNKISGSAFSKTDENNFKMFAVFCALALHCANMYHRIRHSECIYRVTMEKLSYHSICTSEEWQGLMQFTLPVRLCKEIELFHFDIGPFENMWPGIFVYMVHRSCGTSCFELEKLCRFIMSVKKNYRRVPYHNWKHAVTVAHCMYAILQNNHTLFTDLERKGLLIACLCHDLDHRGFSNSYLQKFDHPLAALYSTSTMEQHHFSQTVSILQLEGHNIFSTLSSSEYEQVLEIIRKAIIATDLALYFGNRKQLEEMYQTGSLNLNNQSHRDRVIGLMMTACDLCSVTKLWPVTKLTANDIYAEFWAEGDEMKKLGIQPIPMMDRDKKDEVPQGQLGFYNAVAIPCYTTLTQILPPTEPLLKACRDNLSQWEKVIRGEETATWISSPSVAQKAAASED

The term melting point denotes the temperature of the solid-liquid transition. For orientation: inhibition means the change of the read-out against control, counted positive when it falls. As usually defined, the IC50 is the midpoint of a concentration-inhibition curve. Low readings indicate greater potency in that assay, high ones weaker potency in that assay. In turn, `O=c1ccn(-c2cccc(C(F)(F)F)c2)nc1-c1ccnn1-c1ccccc1` [Example 10, 3-(1-Phenyl-1H-pyrazol-5-yl)-1-[3-(trifluoromethyl)phenyl]pyridazin-4(1H)-one] had a melting point of 156 to 157 °C. In series [1] (Table 1), the inhibition at 1 µM was determined as 98% and the IC50 is 10 to 200 nM.
Regarding `COc1ccccc1-n1ccc(=O)c(-c2ccnn2-c2ccccc2)n1` [Example 13, 1-(2-Methoxyphenyl)-3-(1-phenyl-1H-pyrazol-5-yl)pyridazin-4(1H)-one], the melting point lay within 153 to 154 °C. Besides, in series [1] (Table 1), the inhibition at 1 µM came out at 96% and the IC50 fell in the range of 10 to 200 nM.
For `O=c1ccn(-c2cccc(F)c2)nc1-c1ccnn1-c1ccccc1` [Example 15, 1-(3-Fluorophenyl)-3-(1-phenyl-1H-pyrazol-5-yl)pyridazin-4(1H)-one], in that order: 170 to 171 °C, 97% and 10 to 200 nM.
On to `O=c1ccn(-c2ccccc2F)nc1-c1ccnn1-c1ccccc1` [Example 16, 1-(2-Fluorophenyl)-3-(1-phenyl-1H-pyrazol-5-yl)pyridazin-4(1H)-one], for which the melting point was 124 to 125 °C. Also, in series [1] (Table 1), the inhibition at 1 µM was 97% and the half-maximal inhibitory concentration (IC50) was in the range of 10 to 200 nM.
For `O=c1ccn(-c2ccc(F)cc2)nc1-c1ccnn1-c1ccccc1` [Example 17, 1-(4-Fluorophenyl)-3-(1-phenyl-1H-pyrazol-5-yl)pyridazin-4(1H)-one], in that order: 252 to 253 °C, 97% and 10 to 200 nM.
`O=c1ccn(-c2ccc(N3CCOCC3)cc2)nc1-c1ccnn1-c1ccccc1` [Example 23, 1-(4-Morpholin-4-ylphenyl)-3-(1-phenyl-1H-pyrazol-5-yl)pyridazin-4(1H)-one]: the melting point was in the range of 205 to 206 °C. In series [1] (Table 1), the inhibition at 1 µM is 102% and the concentration for half-maximal inhibition (IC50) is below 10 nM.
As for `O=c1ccn(-c2ccccc2OC(F)F)nc1-c1ccnn1-c1ccccc1` [Example 26, 1-[2-(Difluoromethoxy)phenyl]-3-(1-phenyl-1H-pyrazol-5-yl)pyridazin-4(1H)-one], the melting point is 123 to 124 °C. Also, in series [1] (Table 1), the inhibition at 1 µM worked out at 97% and the 50% inhibitory concentration (IC50) lay in the range of 10 to 200 nM.
The molecule `O=c1ccn(-c2cccnc2)nc1-c1ccnn1-c1ccccc1` [Example 30, 3-(1-Phenyl-1H-pyrazol-5-yl)-1-pyridin-3-ylpyridazin-4(1H)-one] had a melting point of 176 to 177 °C. In addition, the inhibition at 0.1 µM in series [1] (setting [2]) is 87%. In series [1] (Table 1), this molecule displayed a 50% inhibitory concentration (IC50) of 10 to 200 nM.
In turn, `O=c1ccn(-c2ccccc2Cl)nc1-c1ccnn1-c1ccccc1` [Example 32, 1-(2-Chlorophenyl)-3-(1-phenyl-1H-pyrazol-5-yl)pyridazin-4(1H)-one] yielded a melting point of 138 to 139 °C. Also, in series [1] (Table 1), the inhibition at 1 µM came to 89% and the IC50 was in the range of 10 to 200 nM.
On to `CS(=O)(=O)c1cccc(-n2ccc(=O)c(-c3ccnn3-c3ccccc3)n2)c1` [Example 36, 1-[3-(Methylsulfonyl)phenyl]-3-(1-phenyl-1H-pyrazol-5-yl)pyridazin-4(1H)-one], for which the melting point lay in the range of 199 to 200 °C. Besides, in series [1] (setting [2]), the inhibition at 0.1 µM stood at 90%. The IC50 in series [1] (Table 1) was below 10 nM.
Turning to `O=c1ccn(-c2cccc(S(=O)(=O)c3nc4ccccc4[nH]3)c2)nc1-c1ccnn1-c1ccccc1` [Example 39, 1-[3-(1H-Benzimidazol-2-ylsulfonyl)phenyl]-3-(1-phenyl-1H-pyrazol-5-yl)pyridazin-4(1H)-one], the melting point lay in the range of 160 to 161 °C. In series [1] (Table 1), the inhibition at 1 µM stood at 98% and the IC50 was below 10 nM.
For `COc1cn(-c2ccccc2F)nc(-c2ccnn2-c2ccccc2)c1=O` [Example 52, 1-(2-Fluorophenyl)-5-methoxy-3-(1-phenyl-1H-pyrazol-5-yl)pyridazin-4(1H)-one], in that order: 163 to 165 °C, 99% and below 10 nM.
`COc1cn(-c2cccc(C(F)(F)F)c2)nc(-c2ccnn2-c2ccccc2)c1=O` [Example 54, 5-Methoxy-3-(1-phenyl-1H-pyrazol-5-yl)-1-[3-(trifluoromethyl)phenyl]pyridazin-4(1H)-one] gave a melting point of 139 to 141 °C. In series [1] (Table 1), the inhibition at 1 µM stood at 100% and the IC50 is below 10 nM.
For `COc1cn(-c2ccc(N3CCOCC3)cc2F)nc(-c2ccnn2-c2ccccc2)c1=O` [Example 57, 1-(2-Fluoro-4-morpholin-4-ylphenyl)-5-methoxy-3-(1-phenyl-1H-pyrazol-5-yl)pyridazin-4(1H)-one], in that order: 226 to 228 °C, 101% and below 10 nM.
For `O=c1c(OC(F)F)cn(-c2ccccc2F)nc1-c1ccnn1-c1ccccc1` [Example 64, 5-(Difluoromethoxy)-1-(2-fluorophenyl)-3-(1-phenyl-1H-pyrazol-5-yl)pyridazin-4(1H)-one], in that order: 109 to 114 °C, 94% and 10 to 200 nM.
`COc1cn(-c2ccc(N3CCC3=O)cc2F)nc(-c2ccnn2-c2ccccc2)c1=O` [Example 107, 1-[2-Fluoro-4-(2-oxoazetidin-1-yl)phenyl]-5-methoxy-3-(1-phenyl-1H-pyrazol-5-yl)pyridazin-4(1H)-one] returned a melting point of 189 to 194 °C. The inhibition at 0.1 µM in series [1] (Table 2, compound at 0.1 μM, read-out: Percent inhibition (0.1 μM)) came to 104%. In series [1] (Table 2), the concentration for half-maximal inhibition (IC50) is below 10 nM.
As to `COc1ccc(Cn2nccc2-c2nn(-c3cccc(C(F)(F)F)c3)ccc2=O)cc1` [Example 154, 3-[1-(4-Methoxybenzyl)-1H-pyrazol-5-yl]-1-[3-(trifluoromethyl)phenyl]pyridazin-4(1H)-one], the melting point was in the range of 159 to 161 °C.
On to `COc1cn(-c2cccnc2)nc(-c2ccnn2-c2ccccc2)c1=O` [Example 173, 5-Methoxy-3-(1-phenyl-1H-pyrazol-5-yl)-1-pyridin-3-ylpyridazin-4(1H)-one], for which the melting point is 210 to 212 °C.
Same read-out and setting: then `COc1cn(-c2cc(N3CCCC3=O)ccc2F)nc(-c2ccnn2-c2ccccc2)c1=O` [Example 182, 1-[2-Fluoro-5-(2-oxopyrrolidin-1-yl)phenyl]-5-methoxy-3-(1-phenyl-1H-pyrazol-5-yl)pyridazin-4(1H)-one], with 171 to 174 °C.
Consider `COc1cn(-c2ccc(N3CC4(CC4)OC3=O)cc2F)nc(-c2ccnn2-c2ccccc2)c1=O` [Example 191, 6-{3-Fluoro-4-[5-methoxy-4-oxo-3-(1-phenyl-1H-pyrazol-5-yl)pyridazin-1(4H)-yl]phenyl}-4-oxa-6-azaspiro[2.4]heptan-5-one], for which the melting point lay within 200 to 201 °C.
The same measure, in the same setting: the figure for `COc1cc(=O)c(-c2ccnn2-c2ccccc2)nn1-c1cccc(C(F)(F)F)c1` [Example 193, 6-Methoxy-3-(1-phenyl-1H-pyrazol-5-yl)-1-[3-(trifluoromethyl)phenyl]pyridazin-4(1H)-one] is 139 to 141 °C.
